Consider twelve molecules from ChEMBL document CHEMBL3826938, “Synthesis and biological evaluation of Oblongifolin C derivatives as c-Met inhibitors” (Bioorg Med Chem, 2016).

The subject of data set [1] is HepG2. The experiment in a line: Cytotoxicity against human HepG2 cells assessed as growth inhibition after 72 hrs by MTT assay. The settings on record: HepG2, 72 h. (Tetrazolium assays rely on reduction of a dye to a coloured formazan, in cell work by metabolically active cells.)
Data set [2] in a line: Cytotoxicity against human MIAPaCa2 cells assessed as growth inhibition after 72 hrs by MTT assay. Conditions: MIA PaCa-2, 72 h.
The nature of data set [3]: Cytotoxicity against human HCC827 cells assessed as growth inhibition after 72 hrs by MTT assay. Conditions: HCC827, 72 h.
The subject of data set [4] is AGS. The experiment in a line: Cytotoxicity against human AGS cells assessed as growth inhibition after 72 hrs by MTT assay.
Data set [5] concerns A549. In words: Cytotoxicity against human A549 cells assessed as growth inhibition after 72 hrs by MTT assay. Conditions: A549, 72 h.
In data set [6] the test system is HeLa. The experiment in a line: Cytotoxicity against human HeLa cells assessed as growth inhibition after 72 hrs by MTT assay.
Data set [7] concerns HT-29. The experiment in a line: Cytotoxicity against human HT-29 cells assessed as growth inhibition after 72 hrs by MTT assay. Conditions: HT-29, 72 h.
Data set [8] is described as follows: Solubility of compound in water. The settings on record: buffer. In kind it is physicochemical.
The target of data set [9] is Hepatocyte growth factor receptor (Homo sapiens, UniProt P08581). The experiment in a line: Inhibition of c-MET (unknown origin) by caliper mobility shift assay.
Hepatocyte growth factor receptor, sequence (P08581 whole entry): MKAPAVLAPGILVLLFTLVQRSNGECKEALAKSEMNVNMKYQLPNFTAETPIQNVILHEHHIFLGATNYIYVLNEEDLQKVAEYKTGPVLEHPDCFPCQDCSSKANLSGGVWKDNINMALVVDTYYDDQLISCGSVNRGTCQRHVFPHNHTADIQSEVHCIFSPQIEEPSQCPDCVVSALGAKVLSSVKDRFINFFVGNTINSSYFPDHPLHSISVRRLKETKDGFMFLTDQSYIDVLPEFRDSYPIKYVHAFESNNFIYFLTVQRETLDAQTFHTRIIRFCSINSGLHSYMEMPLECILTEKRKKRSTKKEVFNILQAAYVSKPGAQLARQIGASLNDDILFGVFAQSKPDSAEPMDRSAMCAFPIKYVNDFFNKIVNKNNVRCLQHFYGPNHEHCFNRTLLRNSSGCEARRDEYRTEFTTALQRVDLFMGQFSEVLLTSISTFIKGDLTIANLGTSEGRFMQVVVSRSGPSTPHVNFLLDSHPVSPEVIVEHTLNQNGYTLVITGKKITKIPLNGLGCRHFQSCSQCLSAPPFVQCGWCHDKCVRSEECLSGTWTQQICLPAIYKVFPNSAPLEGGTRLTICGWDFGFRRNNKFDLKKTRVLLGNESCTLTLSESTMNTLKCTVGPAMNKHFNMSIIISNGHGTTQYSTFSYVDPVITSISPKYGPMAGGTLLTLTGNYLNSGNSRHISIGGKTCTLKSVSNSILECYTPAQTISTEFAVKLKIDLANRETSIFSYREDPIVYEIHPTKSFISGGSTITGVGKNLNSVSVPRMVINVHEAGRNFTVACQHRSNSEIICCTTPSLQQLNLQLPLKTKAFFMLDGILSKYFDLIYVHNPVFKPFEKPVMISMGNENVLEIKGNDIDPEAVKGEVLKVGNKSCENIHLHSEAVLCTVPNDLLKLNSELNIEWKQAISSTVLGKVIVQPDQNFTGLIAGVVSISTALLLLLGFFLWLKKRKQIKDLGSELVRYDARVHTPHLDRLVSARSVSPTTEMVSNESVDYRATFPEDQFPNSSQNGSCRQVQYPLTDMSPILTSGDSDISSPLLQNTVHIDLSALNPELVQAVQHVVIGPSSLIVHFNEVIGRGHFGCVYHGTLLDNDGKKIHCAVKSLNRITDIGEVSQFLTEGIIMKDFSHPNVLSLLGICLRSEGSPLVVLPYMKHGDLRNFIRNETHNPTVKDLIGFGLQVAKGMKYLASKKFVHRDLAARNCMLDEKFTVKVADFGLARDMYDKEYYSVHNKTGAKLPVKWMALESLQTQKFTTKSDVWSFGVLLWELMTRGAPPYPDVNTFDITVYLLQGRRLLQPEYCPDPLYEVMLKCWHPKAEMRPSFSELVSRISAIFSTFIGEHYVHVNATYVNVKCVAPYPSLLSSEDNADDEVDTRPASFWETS
For data set [10], the system named is HCC827. The experiment in a line: Antimigratory activity against human HCC827 cells at 2.5 to 10 uM after 24 hrs by crystal violet staining based transwell chamber assay. In kind it is functional, cell-based.

Each structure is given as a SMILES string. The source made the active and inactive calls. No cut-off for these calls is given here. Where only a bound is given, the exact number is not on record here.

With `CC(C)=CCC/C(C)=C/C[C@@H]1C[C@]2(CC=C(C)C)C(=O)[C@@](CC=C(C)C)(C(=O)C(C(=O)c3ccc(O)c(OC(=O)CCCC[C@@H]4SCC5NC(=O)NC54)c3)=C2O)[C@@]1(C)CCC=C(C)C` (some centres not stated), the IC50 in data set [1] came out at 14.6 µM; in data set [2], 11.7 µM; in [3], 12.1 µM; in [4] it was 12.2 µM; in data set [5], 11.3 µM; in data set [6] it was 12.7 µM. Also, in data set [7], the IC50 worked out at 18.2 µM.

For `CC(C)=CCC/C(C)=C/C[C@@H]1C[C@]2(CC=C(C)C)C(=O)[C@@](CC=C(C)C)(C(=O)C(C(=O)c3ccc(OCC(=O)O)c(OCC(=O)O)c3)=C2O)[C@@]1(C)CCC=C(C)C`, the solubility result in [8] is on record as “soluble”. Besides, the concentration for half-maximal inhibition (IC50) in data set [1], in data set [2], in data set [3], in data set [4], in data set [5] and in data set [6] was greater than 20 µM in each case. The concentration for half-maximal inhibition (IC50) in data set [7] is greater than 20 µM.

With `CC(C)=CCC/C(C)=C/C[C@@H]1C[C@]2(CC=C(C)C)C(=O)[C@@](CC=C(C)C)(C(=O)C(OC(=O)c3ccc(O)c(O)c3)=C2O)[C@@]1(C)CCC=C(C)C`, the half-maximal inhibitory concentration (IC50) in data set [1] is greater than 20 µM; in data set [2] it was greater than 20 µM; in [3], greater than 20 µM; in data set [4] it was 10.2 µM; in [5], 13.1 µM; in [6], 15.1 µM. Also, in data set [7], the IC50 was 16.3 µM.

Take `C[C@@H](Oc1cc(-c2cnn(C3CCNCC3)c2)cnc1N)c1c(Cl)ccc(F)c1Cl` [CRIZOTINIB]: the IC50 in data set [1] is 3.7 µM; in [2] it was 7.16 µM; in data set [3], 7.25 µM.

For `CC(C)=CCC/C(C)=C/C[C@@H]1C[C@]2(CC=C(C)C)C(=O)[C@@](CC=C(C)C)(C(=O)C(C(=O)c3ccc(O)c(O)c3)=C2O)[C@@]1(C)CCC=C(C)C` [OBLONGIFOLIN C], the half-maximal inhibitory concentration (IC50) in data set [9] is 7.77 µM; in data set [1], 13 µM; in data set [2], 4.46 µM; in data set [3] it was 9.2 µM; in data set [4] it was 4.58 µM; in data set [5] it was 4.29 µM. Moreover, the 50% inhibitory concentration (IC50) came out at 5.83 µM in data set [6] and 6.74 µM in data set [7].

As to `CC(=O)Oc1cc(C(=O)C2=C(O)[C@]3(CC=C(C)C)C[C@@H](C/C=C(\C)CCC=C(C)C)[C@](C)(CCC=C(C)C)[C@](CC=C(C)C)(C2=O)C3=O)ccc1O`, the IC50 was greater than 20 µM in data set [1]; 15.4 µM in [2]; greater than 20 µM in data set [3]; 8.09 µM in data set [4]; 7.66 µM in data set [5]; 8.97 µM in data set [6]. For the same molecule, in [7], the IC50 was 10.2 µM.

On to `CC(C)=CCC/C(C)=C/C[C@@H]1C[C@]2(CC=C(C)C)C(=O)[C@@](CC=C(C)C)(C(=O)C3=C2OC2C=C(O)C(=O)C=C2C3=O)[C@@]1(C)CCC=C(C)C` (some centres not stated), for which the half-inhibitory concentration (IC50) in [1] was 14.3 µM; in data set [2], 9.88 µM; in [3] it was greater than 20 µM; in data set [4], 7.84 µM; in [5], 13.1 µM; in data set [6], 10.3 µM. In addition, the IC50 in data set [7] came out at 16.9 µM. The result in data set [10] was Active.

For `COC(=O)COc1ccc(C(=O)C2=C(O)[C@]3(CC=C(C)C)C[C@@H](C/C=C(\C)CCC=C(C)C)[C@](C)(CCC=C(C)C)[C@](CC=C(C)C)(C2=O)C3=O)cc1OCC(=O)O`, the solubility result in [8] is reported as “soluble”. Further, the IC50 in data set [1], in [2], in data set [3], in data set [4], in data set [5] and in data set [6] was greater than 20 µM throughout. For the same molecule, in data set [7], the concentration for half-maximal inhibition (IC50) was greater than 20 µM.

Take `COC(=O)COc1cc(C(=O)C2=C(O)[C@]3(CC=C(C)C)C[C@@H](C/C=C(\C)CCC=C(C)C)[C@](C)(CCC=C(C)C)[C@](CC=C(C)C)(C2=O)C3=O)ccc1OCC(=O)O`: in [8], the solubility entry was “soluble”. The IC50 in data set [1], in data set [2], in data set [3], in data set [4], in data set [5] and in data set [6] was greater than 20 µM throughout. Also, the IC50 in data set [7] is greater than 20 µM.

For the molecule `CC(C)=CCC/C(C)=C/C[C@@H]1C[C@@]2(CC=C(C)C)C(=O)C3=C(OC4C=C(O)C(=O)C=C4C3=O)[C@](CC=C(C)C)(C2=O)[C@@]1(C)CCC=C(C)C` (some centres not stated), the IC50 was determined as 3.47 µM in [1]; 2.78 µM in data set [2]; 4.56 µM in data set [3]; 7.72 µM in [4]; 9.84 µM in data set [5]; 6.82 µM in [6]. In addition, in data set [7], the IC50 worked out at 9.22 µM. Further, in data set [10], the outcome was Active.

`CC(=O)Oc1ccc(C(=O)C2=C(O)[C@]3(CC=C(C)C)C[C@@H](C/C=C(\C)CCC=C(C)C)[C@](C)(CCC=C(C)C)[C@](CC=C(C)C)(C2=O)C3=O)cc1OC(C)=O`: the IC50 was greater than 20 µM in data set [1]; greater than 20 µM in data set [2]; greater than 20 µM in data set [3]; 15.7 µM in [4]; 16.6 µM in data set [5]; 13.3 µM in data set [6]. Further, the IC50 in data set [7] worked out at 12.2 µM.

As to `CC(C)=CCC/C(C)=C/C[C@@H]1C[C@]2(CC=C(C)C)C(=O)[C@@](CC=C(C)C)(C(=O)C(Cc3ccc(O)c(O)c3)=C2O)[C@@]1(C)CCC=C(C)C`, the concentration for half-maximal inhibition (IC50) in data set [9], in data set [1], in [2], in [3], in data set [4] and in [5] was greater than 20 µM throughout. Moreover, the IC50 in [6] and in [7] was greater than 20 µM in each case.

In general, IC50 refers to the point on the concentration scale where inhibition reaches its midpoint.
